“And” between values parts separate entries of the source, which are not always exact repeats. Equal values may be shown once. Toxic doses and inconclusive results are not listed.
System: P388 leukemia ip, CD2F1 mice, survival T/C
Assay: NCI In Vivo Anticancer Drug Screen. Data for tumor model P388 Leukemia (intraperitoneal) in CD2F1 (CDF1) mice
Conditions: endpoint: median survival time, higher = longer survival
In short: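 Mice carrying the transplanted tumor received test compound or vehicle. Survival was recorded in each group, and the value is the treated-group measurement divided by that of the vehicle-treated control group.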

[1] = dose: 400.0 mg/kg/injection, schedule: Q04DX003 (ip), vehicle: saline with Tween-80
[2] = dose: 50.0 mg/kg/injection, schedule: Q01DX009 (ip), vehicle: saline
[3] = dose: 100.0 mg/kg/injection, schedule: Q01DX009 (ip), vehicle: saline
[4] = dose: 200.0 mg/kg/injection, schedule: Q01DX009 (ip), vehicle: saline
[5] = dose: 60.0 mg/kg/injection, schedule: Q01DX005 (ip), vehicle: Klucel (hydroxypropylcellulose) (HPC)
[6] = dose: 120.0 mg/kg/injection, schedule: Q01DX005 (ip), vehicle: Klucel (hydroxypropylcellulose) (HPC)
[7] = dose: 240.0 mg/kg/injection, schedule: Q01DX005 (ip), vehicle: Klucel (hydroxypropylcellulose) (HPC)
[8] = dose: 50.0 mg/kg/injection, schedule: Q01DX005 (ip), vehicle: Klucel (hydroxypropylcellulose) (HPC)
[9] = dose: 100.0 mg/kg/injection, schedule: Q01DX005 (ip), vehicle: Klucel (hydroxypropylcellulose) (HPC)
[10] = dose: 200.0 mg/kg/injection, schedule: Q01DX005 (ip), vehicle: Klucel (hydroxypropylcellulose) (HPC)
[11] = dose: 60.0 mg/kg/injection, schedule: Q01DX005 (ip), vehicle: saline with Tween-80
[12] = dose: 120.0 mg/kg/injection, schedule: Q01DX005 (ip), vehicle: saline with Tween-80
[13] = dose: 240.0 mg/kg/injection, schedule: Q01DX005 (ip), vehicle: saline with Tween-80
[14] = dose: 25.0 mg/kg/injection, schedule: Q01DX009 (ip), vehicle: saline
[15] = dose: 25.0 mg/kg/injection, schedule: Q01DX009 (ip), vehicle: saline with Tween-80
[16] = dose: 50.0 mg/kg/injection, schedule: Q01DX009 (ip), vehicle: saline with Tween-80
[17] = dose: 100.0 mg/kg/injection, schedule: Q01DX009 (ip), vehicle: saline with Tween-80
[18] = dose: 200.0 mg/kg/injection, schedule: Q01DX009 (ip), vehicle: saline with Tween-80
[19] = dose: 60.0 mg/kg/injection, schedule: Q01DX005 (ip), vehicle: saline
[20] = dose: 120.0 mg/kg/injection, schedule: Q01DX005 (ip), vehicle: saline

Cc1ccc(NC(=O)C(Cl)(Cl)Cl)cc1[N+](=O)[O-]
T/C (dose: 100.0 mg/kg/injection, schedule: Q04DX003 (ip), vehicle: saline with Tween-80): 104 % of control
T/C (dose: 200.0 mg/kg/injection, schedule: Q04DX003 (ip), vehicle: saline with Tween-80): 100 % of control
T/C [1]: 100 % of control

Clc1cc(Cl)cc(N=Cc2cccs2)c1
T/C [2]: 100 % of control
T/C [3]: 100 % of control
T/C [4]: 98 % of control

Cc1ccc2nc(NC(=O)N(CCCl)N=O)sc2c1
T/C [1]: 168 % of control

O=C(O)CSCc1cc2c3ccccc3sc2c2ccccc12
T/C [5]: 100 % of control
T/C [6]: 93 % of control
T/C [7]: 96 % of control

O=C(O)CCNCCC(=O)O
T/C (dose: 50.0 mg/kg/injection, schedule: Q04DX003 (ip), vehicle: saline): 96 % of control
T/C (dose: 100.0 mg/kg/injection, schedule: Q04DX003 (ip), vehicle: saline): 123 % of control and 97 % of control
T/C (dose: 200.0 mg/kg/injection, schedule: Q04DX003 (ip), vehicle: saline): 100 % of control
T/C (dose: 400.0 mg/kg/injection, schedule: Q04DX003 (ip), vehicle: saline): 95 % of control

NC(CCl)C(=O)NO (stereo not drawn)
T/C [2]: 99 % of control
T/C [3]: 96 % of control
T/C [4]: 103 % of control

CCC(C)/[N+]([O-])=N\O (stereo not drawn)
T/C (dose: 3.0 mg/kg/injection, schedule: Q01DX005 (ip), vehicle: Klucel (hydroxypropylcellulose) (HPC)): 98 % of control
T/C (dose: 6.0 mg/kg/injection, schedule: Q01DX005 (ip), vehicle: Klucel (hydroxypropylcellulose) (HPC)): 91 % of control
T/C (dose: 12.0 mg/kg/injection, schedule: Q01DX005 (ip), vehicle: Klucel (hydroxypropylcellulose) (HPC)): 100 % of control
T/C (dose: 24.0 mg/kg/injection, schedule: Q01DX005 (ip), vehicle: Klucel (hydroxypropylcellulose) (HPC)): 97 % of control

Nc1ccc(S(=O)(=O)NC(CSSCC(NS(=O)(=O)c2ccc(N)cc2)C(=O)O)C(=O)O)cc1 (stereo not drawn)
T/C [8]: 110 % of control
T/C [9]: 101 % of control
T/C [10]: 113 % of control

Cc1ccc(S(=O)(=O)CC(=O)CC(=O)C(N)=O)cc1
T/C [11]: 109 % of control
T/C [12]: 108 % of control
T/C [13]: 104 % of control

O=C1CSCC(=O)OCCOCCSCCOCCO1
T/C (dose: 100.0 mg/kg/injection, schedule: Q04DX003 (ip), vehicle: suspension in saline): 92 % of control
T/C (dose: 200.0 mg/kg/injection, schedule: Q04DX003 (ip), vehicle: suspension in saline): 99 % of control
T/C (dose: 400.0 mg/kg/injection, schedule: Q04DX003 (ip), vehicle: suspension in saline): 101 % of control

COC(=O)c1cccc2c(Br)cc3ccccc3c12
T/C (dose: 150.0 mg/kg/injection, schedule: Q04DX003 (ip), vehicle: Klucel (hydroxypropylcellulose) (HPC)): 95 % of control
T/C (dose: 300.0 mg/kg/injection, schedule: Q04DX003 (ip), vehicle: Klucel (hydroxypropylcellulose) (HPC)): 91 % of control

C=CCN(CC=C)C(CC(=O)C(C)(C)C)=NCC
T/C (dose: 12.5 mg/kg/injection, schedule: Q01DX009 (ip), vehicle: saline): 104 % of control
T/C [14]: 106 % of control
T/C [2]: 100 % of control and 101 % of control

O=C(NC1C=Nc2ccc([N+](=O)[O-])cc2NC1=O)c1ccc(Cl)cc1 (stereo not drawn)
T/C [5]: 91 % of control
T/C [6]: 93 % of control
T/C [7]: 92 % of control

Cc1ccc(Oc2ccc(C(=O)C(CN(C)C)CN(C)C)cc2)cc1
T/C (dose: 1.88 mg/kg/injection, schedule: Q01DX005 (ip), vehicle: saline): 107 % of control
T/C (dose: 3.75 mg/kg/injection, schedule: Q01DX005 (ip), vehicle: saline): 110 % of control
T/C (dose: 7.5 mg/kg/injection, schedule: Q01DX005 (ip), vehicle: saline): 112 % of control and 121 % of control

CN(CCC#N)c1ccc(/C=C(\C#N)C(N)=O)cc1
T/C (dose: 20.0 mg/kg/injection, schedule: Q01DX009 (ip), vehicle: saline with Tween-80): 101 % of control
T/C [15]: 97 % of control
T/C (dose: 40.0 mg/kg/injection, schedule: Q01DX009 (ip), vehicle: saline with Tween-80): 89 % of control
T/C [16]: 98 % of control
T/C [17]: 97 % of control
T/C (dose: 160.0 mg/kg/injection, schedule: Q01DX009 (ip), vehicle: saline with Tween-80): 90 % of control
T/C [18]: 97 % of control

COC(=O)c1cc(-c2cccnc2)[nH]c(=O)c1C#N
T/C [19]: 104 % of control
T/C [20]: 100 % of control

Nc1n[nH]c2c3c([nH]c(=O)c12)-c1ccccc1SC3
T/C (dose: 100.0 mg/kg/injection, schedule: Q04DX002 (ip), vehicle: Klucel (hydroxypropylcellulose) (HPC)): 102 % of control
T/C (dose: 200.0 mg/kg/injection, schedule: Q04DX002 (ip), vehicle: Klucel (hydroxypropylcellulose) (HPC)): 88 % of control
T/C (dose: 400.0 mg/kg/injection, schedule: Q04DX002 (ip), vehicle: Klucel (hydroxypropylcellulose) (HPC)): 86 % of control

CC1=C(/C=C/C(C)=C/C=C/C(C)=C/C=C/C=C(C)/C=C/C=C(C)/C=C/C2=C(C)C(=O)CCC2(C)C)C(C)(C)CCC1=O
T/C [11]: 98 % of control
T/C [12]: 88 % of control
T/C [13]: 91 % of control

O=S(=O)(O)c1ccc(OCCCCCCCCCCOc2ccc(S(=O)(=O)O)cc2)cc1
T/C [19]: 105 % of control
T/C [20]: 102 % of control
T/C (dose: 240.0 mg/kg/injection, schedule: Q01DX005 (ip), vehicle: saline): 98 % of control

O[C@]12C=C[C@H](CCCC1)O2
T/C (dose: 50.0 mg/kg/injection, schedule: Q01DX005 (ip), vehicle: saline with Tween-80): 107 % of control
T/C (dose: 100.0 mg/kg/injection, schedule: Q01DX005 (ip), vehicle: saline with Tween-80): 108 % of control
T/C (dose: 200.0 mg/kg/injection, schedule: Q01DX005 (ip), vehicle: saline with Tween-80): 111 % of control

CSCCC(NC(=O)C(Cc1ccccc1)NC(=O)CNC(=O)C(C)NC(=O)C(N)Cc1ccc(O)cc1)C(N)=O (stereo not drawn)
T/C (dose: 8.75 mg/kg/injection, schedule: Q01DX005 (ip), vehicle: saline): 103 % of control
T/C (dose: 17.5 mg/kg/injection, schedule: Q01DX005 (ip), vehicle: saline): 107 % of control
T/C (dose: 35.0 mg/kg/injection, schedule: Q01DX005 (ip), vehicle: saline): 100 % of control
T/C (dose: 70.0 mg/kg/injection, schedule: Q01DX005 (ip), vehicle: saline): 100 % of control
T/C (dose: 140.0 mg/kg/injection, schedule: Q01DX005 (ip), vehicle: saline): 104 % of control

CCCCCCC1(/C=C\c2ccccc2)OCCO1
T/C [16]: 102 % of control
T/C [17]: 110 % of control
T/C [18]: 101 % of control

CNC/C=C/CN(C)C(=S)S
T/C [2]: 108 % of control
T/C [3]: 92 % of control
T/C [4]: 96 % of control

CC(=O)Nc1ccc(C(/C=N\NC(N)=S)=N/NC(N)=S)cc1
T/C [15]: 99 % of control
T/C [16]: 97 % of control
T/C [17]: 105 % of control

O=C1CSC(=S)N1c1ccc(Cl)c([N+](=O)[O-])c1
T/C [14]: 101 % of control
T/C [2]: 104 % of control and 111 % of control and 92 % of control
T/C [3]: 99 % of control and 100 % of control
T/C (dose: 100.0 mg/kg/injection, schedule: Q01DX009 (ip), vehicle: suspension in saline): 117 % of control
T/C [4]: 102 % of control and 108 % of control
T/C (dose: 200.0 mg/kg/injection, schedule: Q01DX009 (ip), vehicle: suspension in saline): 86 % of control

Cc1nn(Cc2ccccc2)c(C)c1-c1c(C)nn(Cc2ccccc2)c1C
T/C [8]: 104 % of control
T/C [9]: 103 % of control
T/C [10]: 99 % of control

COCCCNC(=S)N/N=C/c1cc(Cl)cc(Cl)c1O
T/C (dose: 6.25 mg/kg/injection, schedule: Q01DX009 (ip), vehicle: saline with Tween-80): 92 % of control
T/C (dose: 12.5 mg/kg/injection, schedule: Q01DX009 (ip), vehicle: saline with Tween-80): 87 % of control
T/C [18]: 93 % of control
